Two compounds from patent US5912351A, “Anhydrous 1,4-Dihydropyridines and salts thereof” (Recordati, S.A. Chemical and Pharmaceutical Company, priority 1995, dated 1999) can be followed below.

Holding throughout (assay type): cell-based
Test [1] addresses T1, enzyme ACAT (Mus musculus, UniProt Q61263).
T1 construct: Mouse peritoneal macrophages were obtained by peritoneal lavage from mice; endogenous in cells; host or cells: peritoneal macrophages of Balb/c mice, three days after intraperitoneal thioglycolate
T1 sequence (Q61263 1-540): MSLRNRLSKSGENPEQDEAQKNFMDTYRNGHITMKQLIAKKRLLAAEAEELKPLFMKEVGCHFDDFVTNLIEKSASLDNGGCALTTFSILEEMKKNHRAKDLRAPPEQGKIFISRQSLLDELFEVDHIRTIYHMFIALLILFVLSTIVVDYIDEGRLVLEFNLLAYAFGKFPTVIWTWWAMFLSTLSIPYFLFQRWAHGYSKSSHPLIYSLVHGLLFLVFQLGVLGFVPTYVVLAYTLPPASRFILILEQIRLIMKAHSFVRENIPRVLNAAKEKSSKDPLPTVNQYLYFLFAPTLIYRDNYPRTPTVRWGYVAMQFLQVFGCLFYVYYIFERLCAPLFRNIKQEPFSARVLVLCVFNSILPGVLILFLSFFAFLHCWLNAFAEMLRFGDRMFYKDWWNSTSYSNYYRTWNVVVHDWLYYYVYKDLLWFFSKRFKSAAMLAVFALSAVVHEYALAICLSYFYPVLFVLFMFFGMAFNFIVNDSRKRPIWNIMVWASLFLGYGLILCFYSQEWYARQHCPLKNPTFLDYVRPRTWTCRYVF
The test can be described thus: Cholesterol esterification in cholesterol ester loaded macrophages. The settings on record: macrophages preloaded with cholesteryl esters. The protocol:
Cholesterol esterification induced by AcLDL in mouse peritoneal macrophages was investigated as follows. Mouse peritoneal macrophages were obtained by peritoneal lavage from mice (Balb/c Charles River, Calco, Italy) three days after intraperitoneal injection of thioglycolate. Cells (2×3×10^6) were plated in 35 mm wells with Dulbecco's minimum essential medium containing 10% fetal bovine serum. After 3 hours, the dishes were washed to eliminate unattached cells and maintained in Dulbecco's minimum essential medium plus 10% fetal bovine serum for 24 hours before use. After cell plating, experiments were performed at 37° C. in serum free Dulbecco's minimum essential medium containing 0.2% essentially fatty acid-free bovine serum albumin, AcLDL, a specific ACAT inhibitor, S-58035 (See C. A. Ross et al., J. Biol, Chem. 259: 815-819 (1984)), and lercanidipine, or the lercanidipine enantiomers indicated. Human LDL (d=1.019-1.063 g/ml) were isolated from plasma of healthy volunteers by sequential ultracentrifugation (Beckman L5-50, Palo Alto, Calif.). For acetylation, LDL were dialyzed against 0. 15 M NaCl , pH 7.4, diluted with an equal volume of saturated sodium acetate and treated with acetic anhydride. For [^125 1]AcLDL, lipoproteins were labelled with sodium [^125 I]iodide desalted by gel filtration on Sephadex G-25 eluted with phosphate buffered saline. Specific activity was 100-200 cpm/ng of protein. Trichloroacetic acid non-precipitable radioactivity was below 2% of total. All lipoproteins were sterile filtered. The cells were incubated for 24 hours with the tested compounds. […] Cholesterol esterification was measured after addition of [1-^14 C] oleic acid (0.68 mCi sample) complexed with bovine serum albumin during the last 1 or 2 hours of incubation by subsequent determination of radioactivity associated with cellular cholesteryl esters. […]
Cells, prepared according to the procedure in Example 6A, are loaded with cholesteryl esters by exposure for 24 hours to a medium containing 50 μg/ml acetyl LDL. ACAT inhibition was then determined as in Example 6A.

Test [2] deals with rat aortic smooth muscle cells (myocytes). Briefly: Myocytes growth inhibition measured by cell count (rat myocytes). Conditions: 72 h, cell count after 72 hours, read-out: IC50 = concentration required to inhibit cell growth by 50%. The protocol:
Migration of myocytes was investigated for the present invention using rat aortic smooth muscle cells in the presence of fibrinogen as chemotactic factor, whereas for studies on their proliferation rat and human cells were used. Cell count and [3H]-thymidine incorporation were used to evaluate myocytes growth. The methodology was as follows:
Myocytes were cultured from the intima-medial layer of the aortas of male Sprague-Dawley rats (200-250 g). Cells were grown in monolayers at 37° C. in a humidified atmosphere of 5% CO2 in Eagle's minimum essential medium supplemented with 10% (v/v) fetal calf serum, 100 U/ml penicillin, 0.1 mg/ml streptomycin, 20 mM tricine buffer and 1% (v/v) non-essential amino acid solution. The medium was changed every third day. Cells were used between the 4th and 10th passage. Cell viability was timely assessed by trypan blue exclusion. Myocytes were identified for growth behavior, morphology and using monoclonal antibody specific for a-actin, the actin isoform typical of myocytes. Human vascular myocytes (A 617 from human femoral artery) kindly provided by Prof. G. Gabbiani of The General Pathology Institute (Geneva University--Switzerland) were grown in the same culture conditions. (These or other human vascular myocytes can be obtained and cultured as described by Corsini et al., Atherosclerosis, 101: 117-125, (1993); Corsini et al., Pharm. Res, 23: 173 (1991); Ross, R, J. Cell Bio., 50: 172, (1971); and Skalli, 0. et al., J. Cell Bio., 103: 2787 (1986)).
Cells were seeded at various densities for rat (2×10^5) and human (5 10×10^4) myocytes/petri dish (35 mm), and incubated with Eagle's minimum essential medium supplemented with 10% fetal calf serum. Twenty-four hours later the medium was changed to one containing 0.4% fetal calf serum to stop cell growth, and the cultures were incubated for 72 hours. At this time (time 0) the medium was replaced by one containing 10% fetal calf serum in the presence or absence of known concentrations of the 1,4-dihydropyridine compounds being tested (shown in Table 1). The incubation was continued for an additional 72 hours at 37° C. Just before the addition of the test substances, an aliquot from each petri dish was used for cell counting. Cell proliferation was evaluated by cell count after trypsinization of the monolayers using a Coulter Counter model ZM. Cell viability was assessed by trypan blue exclusion, and found to be greater than 95% at the drug concentrations used.

The target of test [3] is T1, enzyme ACAT. The test can be described thus: Cholesterol esterification induced by AcLDL in mouse peritoneal macrophages. The settings on record: FIG. 3. The protocol: Cholesterol esterification induced by AcLDL in mouse peritoneal macrophages was investigated as follows. Mouse peritoneal macrophages were obtained by peritoneal lavage from mice (Balb/c Charles River, Calco, Italy) three days after intraperitoneal injection of thioglycolate. Cells (2×3×10^6) were plated in 35 mm wells with Dulbecco's minimum essential medium containing 10% fetal bovine serum. After 3 hours, the dishes were washed to eliminate unattached cells and maintained in Dulbecco's minimum essential medium plus 10% fetal bovine serum for 24 hours before use. After cell plating, experiments were performed at 37° C. in serum free Dulbecco's minimum essential medium containing 0.2% essentially fatty acid-free bovine serum albumin, AcLDL, a specific ACAT inhibitor, S-58035 (See C. A. Ross et al., J. Biol, Chem. 259: 815-819 (1984)), and lercanidipine, or the lercanidipine enantiomers indicated. Human LDL (d=1.019-1.063 g/ml) were isolated from plasma of healthy volunteers by sequential ultracentrifugation (Beckman L5-50, Palo Alto, Calif.). […] Trichloroacetic acid non-precipitable radioactivity was below 2% of total. […] Cholesterol esterification was measured after addition of [1-^14 C] oleic acid (0.68 mCi sample) complexed with bovine serum albumin during the last 1 or 2 hours of incubation by subsequent determination of radioactivity associated with cellular cholesteryl esters.

[4] abbreviates: myocytes from SD (Sprague Dawley) rat.
[5] abbreviates: myocytes from SHR (Spontaneously Hypertensive) rat.
Where [6] appears, read: myocytes from WK (Wistar Kyoto) rat.

pIC50: −log10 of the molar value. Read-outs that look alike come from different tables or passages of the source.

Consider `COC(=O)C1=C(C)NC(C)=C(C(=O)OC(C)(C)CN(C)CCC(c2ccccc2)c2ccccc2)[C@@H]1c1cccc([N+](=O)[O-])c1` [(R)-LE, (R)-(-)METHYL 1,1-N-TRIMETHYL-N-(3,3-DIPHENYLPROPYL)-2-AMINOETHYL 1,4-DIHYDRO-2,6-DIMETHYL-4-(3-NITROPHENYL)PYRIDINE-3,5-DICARBOXYLATE], for which the “relative potency, cholesterol esterification” value at enzyme ACAT [1] is recorded as “slightly more potent than the racemate”; on enzyme ACAT [3], “most potent compound”. Besides, the pIC50 on enzyme ACAT [1] (FIG. 4) is ~5.15; in test [2] (setting [4]) it was 4.51; in test [2] (setting [5]), 5.04; in test [2] (setting [6]), 4.82.

As to `COC(=O)C1=C(C)NC(C)=C(C(=O)OC(C)(C)CN(C)CCC(c2ccccc2)c2ccccc2)[C@H]1c1cccc([N+](=O)[O-])c1` [(S)-LE, (S)-(+)-METHYL 1,1-N-TRIMETHYL-N-(3,3-DIPHENYLPROPYL)-2-AMINOETHYL 1,4-DIHYDRO-2,6-DIMETHYL-4-(3-NITROPHENYL)PYRIDINE-3,5-DICARBOXYLATE], the “relative potency, cholesterol esterification” value at enzyme ACAT [1] is reported as “least potent”. In addition, the pIC50 in test [2] (setting [4]) is 4.48; in test [2] (setting [5]), 4.77; in test [2] (setting [6]), 4.68.
